Legend:
Format in all cases: cell-based
[1] = system: Aspergillus niger ATCC 6275 (= AN); assay: MIC determination in microtiter plates, Aspergillus niger; details: Tables 2a/2b, 5 days at 28° C., ≦20% growth, optical density 620 nm, some approximate values
Method: (§1) Determination of the Minimum Inhibitory Concentration (MIC Value) in Microtiter Plates
(§2) Casein/soybean flour peptone bouillon for the preparation of pre-cultures of the test bacteria and yeast.
(§3) Mycological slant agar for the pre-culture of moulds
(§4) The test substances are pre-dissolved in dimethyl sulfoxide (DMSO) and tested in a dilution series of 1:2.
(§5) Bacteria and yeast are cultured overnight in CASO bouillon, the mould is cultured overnight on mycological slant agar, and washed off with 10 ml of 0.85% sodium chloride solution (+0.1% TritonX-100).
(§6) All the test organisms are adjusted to an organism count of 1−5×10^6 CFU/ml using 0.85% sodium chloride solution.
(§7) The test substances are pre-pipetted into microtiter plates in an amount of 8 μl per well.
(§8) Pre-diluted organism suspensions are diluted 1:100 in CASO bouillon (bacteria and yeast) or Sabouraud 2% glucose bouillon (mould) and are added in an amount of 192 μl per well to the test substances.
(§9) The test batches are incubated for 48 hours at 37° C. (bacteria and yeast) or for 5 days at 28° C. (mould).
(§10) After incubation, the growth is evaluated by reference to the turbidity of the test batches (optical density) at 620 nm in a microplate reader.
(§11) One microtiter plate is used for each test organism and substance concentration. All the substances are tested in duplicate.

[2] = system: Staphylococcus hominis DMS 20328 (= SH); assay: MIC determination in microtiter plates, Staphylococcus hominis; details: Tables 2a/2b, 48 hours at 37° C., ≦20% growth, optical density 620 nm, tested at 120, 60, 30, 15, 7.5 and 3.5 ppm, some approximate
Method: as §1, §2, §3, §4, §5, §6, §7, §8, §9, §10, §11

[3] = system: Escherichia coli NCTC 8196 (= EC); assay: MIC determination in microtiter plates, Escherichia coli; details: Tables 2a/2b, 48 hours at 37° C., ≦20% growth, optical density 620 nm, some approximate values
Method: as §1, §2, §3, §4, §5, §6, §7, §8, §9, §10, §11

[4] = system: Pseudomonas aeruginosa CIP A-22 (= PA); assay: MIC determination in microtiter plates, Pseudomonas aeruginosa; details: Tables 2a/2b, 48 hours at 37° C., ≦20% growth, optical density 620 nm, some approximate values
Method: as §1, §2, §3, §4, §5, §6, §7, §8, §9, §10, §11

[5] = system: Candida albicans ATCC 10231 (= CA); assay: MIC determination in microtiter plates, Candida albicans; details: Tables 2a/2b, 48 hours at 37° C., ≦20% growth, optical density 620 nm, some approximate values
Method: as §1, §2, §3, §4, §5, §6, §7, §8, §9, §10, §11

Q: CCOC(=O)CCCCOc1ccc(CCN)cc1OCCCCC(=O)OCC [Compound 28] was tested. Which “MIC [ppm] AN” value [1] did it give?
A: The value was over 120 ppm.

Q: And the “MIC [ppm] SH” value [2]?
A: The value was over 120 ppm.

Q: What about the “MIC [ppm] EC” value [3] of the same compound?
A: The value was over 120 ppm.

Q: And the “MIC [ppm] PA” value [4]?
A: The value was over 120 ppm.

Q: And the “MIC [ppm] CA” value [5]?
A: The value was over 120 ppm.

Q: How did the “MIC [ppm] AN” value [1] turn out when N#Cc1cccc(COc2ccc(CCN)cc2OCc2cccc(C#N)c2)c1 [Compound 12] was run?
A: Its value is 30 ppm.

Q: And the “MIC [ppm] SH” value [2]?
A: Its value is 60 ppm.

Q: What about the “MIC [ppm] EC” value [3] of the same compound?
A: Its value is 120 ppm.

Q: What about the “MIC [ppm] PA” value [4] of the same compound?
A: The value was over 120 ppm.

Q: And the “MIC [ppm] CA” value [5]?
A: Its value is over 120 ppm.

Q: CCCOC(=O)COc1cc(CCN)cc(OCC(=O)OCCC)c1OCC(=O)OCCC [Compound 74] was tested. Which “MIC [ppm] AN” value [1] did it give?
A: Its value is over 120 ppm.

Q: What about the “MIC [ppm] SH” value [2] of the same compound?
A: The value was over 120 ppm.

Q: What about the “MIC [ppm] EC” value [3] of the same compound?
A: Its value is over 120 ppm.

Q: And the “MIC [ppm] PA” value [4]?
A: Its value is over 120 ppm.

Q: And the “MIC [ppm] CA” value [5]?
A: Its value is over 120 ppm.

Q: Which results are given for CCOC(=O)COc1cc(CCN)cc(OCC(=O)OCC)c1OCC(=O)OCC [Compound 73]?
A: MIC [ppm] AN [1]: >120 ppm; MIC [ppm] SH [2]: >120 ppm; MIC [ppm] EC [3]: >120 ppm; MIC [ppm] PA [4]: >120 ppm; MIC [ppm] CA [5]: >120 ppm

Q: How did the “MIC [ppm] AN” value [1] turn out when CC(C)CCOc1ccc(CCN)cc1OCCC(C)C [Compound 33] was run?
A: Its value is over 120 ppm.

Q: And the “MIC [ppm] SH” value [2]?
A: The value was 30 ppm.

Q: And the “MIC [ppm] EC” value [3]?
A: Its value is 15 ppm.

Q: And the “MIC [ppm] PA” value [4]?
A: The value was 120 ppm.

Q: What about the “MIC [ppm] CA” value [5] of the same compound?
A: Its value is 30 ppm.

Q: For NCCc1cc(OC2CCCC2)c(OC2CCCC2)c(OC2CCCC2)c1 [Compound 92], which “MIC [ppm] AN” value [1] is on record?
A: Its value is 120 ppm.

Q: And the “MIC [ppm] SH” value [2]?
A: The value was 15 ppm.

Q: What about the “MIC [ppm] EC” value [3] of the same compound?
A: The value was 15 ppm.

Q: What about the “MIC [ppm] PA” value [4] of the same compound?
A: Its value is over 120 ppm.

Q: What about the “MIC [ppm] CA” value [5] of the same compound?
A: The value was 60 ppm.

Q: Which results are given for NCCc1cc(OCc2ccccc2F)c(OCc2ccccc2F)c(OCc2ccccc2F)c1 [Compound 66]?
A: MIC [ppm] AN [1]: >120 ppm; MIC [ppm] SH [2]: 15 ppm; MIC [ppm] EC [3]: 15 ppm; MIC [ppm] PA [4]: >120 ppm; MIC [ppm] CA [5]: 120 ppm

Q: For CC(C)Oc1ccc(CCN)cc1OC(C)C [Compound 31], which “MIC [ppm] AN” value [1] is on record?
A: Its value is over 120 ppm.

Q: And the “MIC [ppm] SH” value [2]?
A: Its value is over 120 ppm.

Q: What about the “MIC [ppm] EC” value [3] of the same compound?
A: Its value is over 120 ppm.

Q: And the “MIC [ppm] PA” value [4]?
A: Its value is over 120 ppm.

Q: What about the “MIC [ppm] CA” value [5] of the same compound?
A: Its value is over 120 ppm.

Q: How did the “MIC [ppm] AN” value [1] turn out when C=CCCOc1ccc(CCN)cc1OCCC=C [Compound 43] was run?
A: Its value is over 120 ppm.

Q: And the “MIC [ppm] SH” value [2]?
A: Its value is over 120 ppm.

Q: And the “MIC [ppm] EC” value [3]?
A: Its value is over 120 ppm.

Q: And the “MIC [ppm] PA” value [4]?
A: The value was over 120 ppm.

Q: And the “MIC [ppm] CA” value [5]?
A: Its value is over 120 ppm.

Q: Cc1ccc(C(=O)COc2cc(CCN)cc(OCC(=O)c3ccc(C)cc3)c2OCC(=O)c2ccc(C)cc2)cc1 [Compound 98] was tested. Which “MIC [ppm] AN” value [1] did it give?
A: The value was over 120 ppm.

Q: What about the “MIC [ppm] SH” value [2] of the same compound?
A: Its value is 30 ppm.

Q: What about the “MIC [ppm] EC” value [3] of the same compound?
A: The value was 30 ppm.

Q: And the “MIC [ppm] PA” value [4]?
A: Its value is over 120 ppm.

Q: What about the “MIC [ppm] CA” value [5] of the same compound?
A: Its value is over 120 ppm.

Q: CCCCCCCCCOc1ccc(CCN)cc1OCCCCCCCCC [Compound 39] was tested. Which “MIC [ppm] AN” value [1] did it give?
A: Its value is over 120 ppm.

Q: And the “MIC [ppm] SH” value [2]?
A: The value was 60 ppm.

Q: And the “MIC [ppm] EC” value [3]?
A: Its value is over 120 ppm.

Q: And the “MIC [ppm] PA” value [4]?
A: The value was over 120 ppm.

Q: And the “MIC [ppm] CA” value [5]?
A: The value was over 120 ppm.

Q: For NCCc1ccc(OCc2ccccc2)c(OCc2ccccc2)c1 [Compound 19], which “MIC [ppm] AN” value [1] is on record?
A: Its value is over 120 ppm.

Q: What about the “MIC [ppm] SH” value [2] of the same compound?
A: Its value is 28 ppm.

Q: What about the “MIC [ppm] EC” value [3] of the same compound?
A: Its value is 28 ppm.

Q: And the “MIC [ppm] PA” value [4]?
A: Its value is over 120 ppm.

Q: What about the “MIC [ppm] CA” value [5] of the same compound?
A: The value was 60 ppm.

Q: COC(=O)COc1ccc(CCN)cc1OCC(=O)OC [Compound 21] was tested. Which “MIC [ppm] AN” value [1] did it give?
A: The value was 120 ppm.

Q: And the “MIC [ppm] SH” value [2]?
A: Its value is over 120 ppm.

Q: And the “MIC [ppm] EC” value [3]?
A: Its value is over 120 ppm.

Q: What about the “MIC [ppm] PA” value [4] of the same compound?
A: Its value is over 120 ppm.

Q: And the “MIC [ppm] CA” value [5]?
A: Its value is over 120 ppm.

Q: Which results are given for CCC(C)Oc1ccc(CCN)cc1OC(C)CC (centres unmarked) [Compound 32]?
A: MIC [ppm] AN [1]: >120 ppm; MIC [ppm] SH [2]: >120 ppm; MIC [ppm] EC [3]: >120 ppm; MIC [ppm] PA [4]: >120 ppm; MIC [ppm] CA [5]: >120 ppm

Q: Which “MIC [ppm] AN” value [1] does the source give for COC(=O)c1ccc(COc2ccc(CCN)cc2OCc2ccc(C(=O)OC)cc2)cc1 [Compound 14] here?
A: Its value is over 120 ppm.

Q: What about the “MIC [ppm] SH” value [2] of the same compound?
A: The value was 7.5 ppm.

Q: And the “MIC [ppm] EC” value [3]?
A: Its value is 30 ppm.

Q: What about the “MIC [ppm] PA” value [4] of the same compound?
A: The value was 120 ppm.

Q: What about the “MIC [ppm] CA” value [5] of the same compound?
A: The value was 30 ppm.

Q: CCC(CC)Oc1cc(CCN)cc(OC(CC)CC)c1OC(CC)CC [Compound 86] was tested. Which “MIC [ppm] AN” value [1] did it give?
A: The value was 30 ppm.

Q: And the “MIC [ppm] SH” value [2]?
A: Its value is 7.5 ppm.

Q: And the “MIC [ppm] EC” value [3]?
A: Its value is 15 ppm.

Q: And the “MIC [ppm] PA” value [4]?
A: The value was over 120 ppm.

Q: And the “MIC [ppm] CA” value [5]?
A: The value was 60 ppm.

— US6846492B2, “Use of phenylethylamine derivatives for the antimicrobial treatment of surfaces” (Ciba Specialty Chemicals Corporation, priority 2000, dated 2005)
